{"source": "paper PMC5218480", "about": "(PLoS ONE, 2017)", "test_system": "MV-4-11 cells", "assay": "Gene expression microarray analysis (Affymetrix PrimeView) and GSEA", "assay_type": "cell-based, human", "set-up": "RFU PODN (11730768_x_at) / Fold change /veh PODN (11730768_x_at) / RFU LINC00158 (11744669_a_at) / Fold change /veh LINC00158 (11744669_a_at) / RFU DUSP10 (11751237_a_at) / Fold change /veh DUSP10 (11751237_a_at) / RFU ID3 (11757404_x_at) / Fold change /veh ID3 (11757404_x_at) / RFU PLEKHG5 (11737974_s_at) / Fold change /veh PLEKHG5 (11737974_s_at) / RFU LRRC4B (11730491_at) / Fold change /veh LRRC4B (11730491_at) / RFU GIMAP4 (11747438_a_at) / Fold change /veh GIMAP4 (11747438_a_at) / RFU KRT8 (11758183_x_at) / Fold change /veh KRT8 (11758183_x_at) / RFU CNN1 (11734310_a_at) / Fold change /veh CNN1 (11734310_a_at) / RFU VPS37D (11726825_at) / Fold change /veh VPS37D (11726825_at) / RFU C10orf10 (11716522_x_at) / Fold change /veh C10orf10 (11716522_x_at) / RFU KIR2DL2 /// KIR2DL4 /// KIR2DL5A /// KIR2DL5B /// KIR2DS1 /// KIR2DS2 /// KIR2DS3 /// KIR2DS4 /// KIR3DL3 /// KIR3DL3 /// KIR3DS1 (11738374_at) / Fold change /veh KIR2DL2 /// KIR2DL4 /// KIR2DL5A /// KIR2DL5B /// KIR2DS1 /// KIR2DS2 /// KIR2DS3 /// KIR2DS4 /// KIR3DL3 /// KIR3DL3 /// KIR3DS1 (11738374_at) / RFU C1QL1 (11718748_at) / Fold change /veh C1QL1 (11718748_at) / RFU TMPRSS4 (11747572_a_at) / Fold change /veh TMPRSS4 (11747572_a_at) / RFU HAMP (11756126_x_at) / Fold change /veh HAMP (11756126_x_at) / RFU RNFT2 (11725882_a_at) / Fold change /veh RNFT2 (11725882_a_at) / RFU NR4A2 (11747474_a_at) / Fold change /veh NR4A2 (11747474_a_at) / RFU ABCC12 (11746883_a_at) / Fold change /veh ABCC12 (11746883_a_at) / RFU TMEM136 (11760407_x_at) / Fold change /veh TMEM136 (11760407_x_at) / RFU CLDN22 /// WWC2 (11732394_at) / Fold change /veh CLDN22 /// WWC2 (11732394_at) / RFU HLA-DPB1 (11760878_x_at) / Fold change /veh HLA-DPB1 (11760878_x_at) / RFU SPINT1 (11716480_a_at) / Fold change /veh SPINT1 (11716480_a_at) / RFU GAP43 (11754022_s_at) / Fold change /veh GAP43 (11754022_s_at) / RFU A4GNT (11735810_at) / Fold change /veh A4GNT (11735810_at) / RFU PRB3 (11715151_x_at) / Fold change /veh PRB3 (11715151_x_at) / RFU TUBB4B (11761932_at) / Fold change /veh TUBB4B (11761932_at) / RFU CAPN14 (11732068_a_at) / Fold change /veh CAPN14 (11732068_a_at) / RFU TMCC2 (11721928_a_at) / Fold change /veh TMCC2 (11721928_a_at) / RFU IRGQ (11745062_a_at) / Fold change /veh IRGQ (11745062_a_at) / RFU FAM174B (11720279_a_at) / Fold change /veh FAM174B (11720279_a_at) / RFU TMPRSS4 (11748680_a_at) / Fold change /veh TMPRSS4 (11748680_a_at) / RFU FAM212B (11763350_a_at) / Fold change /veh FAM212B (11763350_a_at) / RFU PLEKHG5 (11743358_a_at) / Fold change /veh PLEKHG5 (11743358_a_at) / RFU ZSCAN30 (11745921_a_at) / Fold change /veh ZSCAN30 (11745921_a_at) / RFU CMKLR1 (11741424_a_at) / Fold change /veh CMKLR1 (11741424_a_at) / RFU LOC101060620 /// MAPK8IP1 (11723275_at) / Fold change /veh LOC101060620 /// MAPK8IP1 (11723275_at) / RFU SPTSSB (11747773_x_at) / Fold change /veh SPTSSB (11747773_x_at) / RFU PRSS12 (11739890_at) / Fold change /veh PRSS12 (11739890_at) / RFU BIN1 (11741810_x_at) / Fold change /veh BIN1 (11741810_x_at) / RFU WNT11 (11732464_a_at) / Fold change /veh WNT11 (11732464_a_at) / RFU C10orf10 (11716521_a_at) / Fold change /veh C10orf10 (11716521_a_at) / RFU C5orf56 (11738089_at) / Fold change /veh C5orf56 (11738089_at) / RFU CYB561 (11721691_x_at) / Fold change /veh CYB561 (11721691_x_at) / RFU ANKRD19P (11752326_a_at) / Fold change /veh ANKRD19P (11752326_a_at) / RFU OR2T12 /// OR2T33 /// OR2T8 (11738714_s_at) / Fold change /veh OR2T12 /// OR2T33 /// OR2T8 (11738714_s_at) / RFU VCAN (11748164_a_at) / Fold change /veh VCAN (11748164_a_at) / RFU JSRP1 (11732532_at) / Fold change /veh JSRP1 (11732532_at) / RFU KRTAP10-11 (11738290_x_at) / Fold change /veh KRTAP10-11 (11738290_x_at) / RFU MYO3A (11730013_a_at) / Fold change /veh MYO3A (11730013_a_at) / RFU EBF3 (11725865_a_at) / Fold change /veh EBF3 (11725865_a_at) / RFU CAMK2N1 (11719241_x_at) / Fold change /veh CAMK2N1 (11719241_x_at) / RFU C5orf56 (11738088_a_at) / Fold change /veh C5orf56 (11738088_a_at) / RFU OLFML3 (11715873_a_at) / Fold change /veh OLFML3 (11715873_a_at) / RFU LOC100653217 /// NTM (11731650_a_at) / Fold change /veh LOC100653217 /// NTM (11731650_a_at) / RFU MAPK11 (11762145_a_at) / Fold change /veh MAPK11 (11762145_a_at) / RFU FIZ1 (11724087_x_at) / Fold change /veh FIZ1 (11724087_x_at) / RFU OASL (11726364_x_at) / Fold change /veh OASL (11726364_x_at) / RFU SOX15 (11748057_x_at) / Fold change /veh SOX15 (11748057_x_at) / RFU CD79A (11719716_a_at) / Fold change /veh CD79A (11719716_a_at) / RFU HIST1H1D (11736915_at) / Fold change /veh HIST1H1D (11736915_at) / RFU CASKIN2 (11723855_a_at) / Fold change /veh CASKIN2 (11723855_a_at) / RFU LOC730098 (11760151_x_at) / Fold change /veh LOC730098 (11760151_x_at) / RFU OR4N2 (11742367_at) / Fold change /veh OR4N2 (11742367_at) / RFU PRRT2 (11749266_a_at) / Fold change /veh PRRT2 (11749266_a_at) / RFU SNX32 (11753110_a_at) / Fold change /veh SNX32 (11753110_a_at) / RFU CDHR5 (11726645_a_at) / Fold change /veh CDHR5 (11726645_a_at) / RFU RCAN1 (11760418_a_at) / Fold change /veh RCAN1 (11760418_a_at) / RFU FAM167A (11723789_a_at) / Fold change /veh FAM167A (11723789_a_at) / RFU FAM26E (11764081_at) / Fold change /veh FAM26E (11764081_at) / RFU ISYNA1 (11749810_s_at) / Fold change /veh ISYNA1 (11749810_s_at) / RFU ACY1 (11761880_at) / Fold change /veh ACY1 (11761880_at) / RFU 11764098_at / Fold change /veh 11764098_at / RFU SAMD14 (11745864_x_at) / Fold change /veh SAMD14 (11745864_x_at) / RFU NPB (11741838_a_at) / Fold change /veh NPB (11741838_a_at) / RFU TMPRSS6 (11731388_a_at) / Fold change /veh TMPRSS6 (11731388_a_at) / RFU KRTAP10-2 (11738614_at) / Fold change /veh KRTAP10-2 (11738614_at) / RFU ARHGAP8 /// PRR5-ARHGAP8 (11727945_x_at) / Fold change /veh ARHGAP8 /// PRR5-ARHGAP8 (11727945_x_at) / RFU KRTAP5-7 /// NADSYN1 (11734609_at) / Fold change /veh KRTAP5-7 /// NADSYN1 (11734609_at) / RFU RASL12 (11751679_a_at) / Fold change /veh RASL12 (11751679_a_at) / RFU CDKN2B (11736163_a_at) / Fold change /veh CDKN2B (11736163_a_at) / RFU PRF1 (11729649_at) / Fold change /veh PRF1 (11729649_at) / RFU, ZNF638 /// ZNF638-IT1 / Fold change vs veh, ZNF638 /// ZNF638-IT1 / RFU, PANK3 / Fold change vs veh, PANK3 / RFU, SH3YL1 / Fold change vs veh, SH3YL1 / RFU, ZEB2 / Fold change vs veh, ZEB2 / RFU, NRIP1 / Fold change vs veh, NRIP1 / RFU, PTTG1IP / Fold change vs veh, PTTG1IP / RFU, CAPN2 / Fold change vs veh, CAPN2 / RFU, MED14 / Fold change vs veh, MED14 / RFU, SNORA58 / Fold change vs veh, SNORA58 / RFU, C1orf63 / Fold change vs veh, C1orf63 / RFU, LRRFIP1 / Fold change vs veh, LRRFIP1 / RFU, NDUFAF7 / Fold change vs veh, NDUFAF7 / RFU, SLC12A2 / Fold change vs veh, SLC12A2 / RFU, IBTK / Fold change vs veh, IBTK / RFU, ESF1 / Fold change vs veh, ESF1 / Fold change vs veh, TMEM50B / RFU, TAOK1 / Fold change vs veh, TAOK1 / RFU, ACBD3 / Fold change vs veh, ACBD3 / RFU, TMA16 / Fold change vs veh, TMA16 / RFU, RWDD3 / Fold change vs veh, RWDD3 / RFU, BCAT1 / Fold change vs veh, BCAT1 / RFU, EDEM3 / Fold change vs veh, EDEM3 / RFU, TMEM33 / Fold change vs veh, TMEM33 / RFU, WDR75 / Fold change vs veh, WDR75 / RFU, AHCTF1 / Fold change vs veh, AHCTF1 / RFU, TFRC / Fold change vs veh, TFRC / RFU, ZDHHC17 / Fold change vs veh, ZDHHC17 / RFU, NOM1 / Fold change vs veh, NOM1 / RFU, ARL8B / Fold change vs veh, ARL8B / RFU, ZBTB11 / Fold change vs veh, ZBTB11 / RFU, TAMM41 / Fold change vs veh, TAMM41 / RFU, KIAA1704 /// LOC100996395 / Fold change vs veh, KIAA1704 /// LOC100996395 / RFU, ING1 / Fold change vs veh, ING1 / RFU, TRMT61B / Fold change vs veh, TRMT61B / RFU, FUBP3 / Fold change vs veh, FUBP3 / RFU, TP53 / Fold change vs veh, TP53 / RFU, TNKS2 / Fold change vs veh, TNKS2 / RFU, ZFP14 / Fold change vs veh, ZFP14 / RFU, ACTR2 / Fold change vs veh, ACTR2 / RFU, PPP3R1 / Fold change vs veh, PPP3R1 / RFU, PIK3R1 / Fold change vs veh, PIK3R1 / RFU, HNRNPA1 / Fold change vs veh, HNRNPA1 / RFU, RNF170 / Fold change vs veh, RNF170 / RFU, ZNF28 / Fold change vs veh, ZNF28 / RFU, RNGTT / Fold change vs veh, RNGTT / RFU, OGT / Fold change vs veh, OGT / RFU, BRD1 / Fold change vs veh, BRD1 / RFU, MARS / Fold change vs veh, MARS / RFU, ZNF655 / Fold change vs veh, ZNF655 / RFU, FAHD1 / Fold change vs veh, FAHD1 / RFU, BDP1 / Fold change vs veh, BDP1 / RFU, LRRCC1 / Fold change vs veh, LRRCC1 / RFU, ARID1A / Fold change vs veh, ARID1A / RFU, ZNF146 / Fold change vs veh, ZNF146 / RFU, ZNF330 / Fold change vs veh, ZNF330 / RFU, GPN3 / Fold change vs veh, GPN3 / RFU, C9orf123 / Fold change vs veh, C9orf123 / RFU, N4BP2L2 / Fold change vs veh, N4BP2L2 / RFU, ARFIP1 / Fold change vs veh, ARFIP1 / RFU, FAM179B / Fold change vs veh, FAM179B / RFU, BCL10 / Fold change vs veh, BCL10 / RFU, UHRF1BP1L / Fold change vs veh, UHRF1BP1L / RFU, BET1 / Fold change vs veh, BET1 / RFU, CNOT2 / Fold change vs veh, CNOT2 / RFU, ZNF268 / Fold change vs veh, ZNF268 / Fold change vs veh, ZNF507 / RFU, DGCR2 / Fold change vs veh, DGCR2 / RFU, WDSUB1 / Fold change vs veh, WDSUB1 / Fold change vs veh, HSP90B1 /// MIR3652 / RFU, ADSS / Fold change vs veh, ADSS / RFU, GK / Fold change vs veh, GK / RFU, ZNF148 / Fold change vs veh, ZNF148 / RFU, TAF9 / Fold change vs veh, TAF9 / RFU, SLC1A5 / Fold change vs veh, SLC1A5 / RFU, SLMO2 / Fold change vs veh, SLMO2 / RFU, ABCC4 / Fold change vs veh, ABCC4 / RFU, LOC101060439 /// RAP1B / Fold change vs veh, LOC101060439 /// RAP1B / RFU, RFX7 / Fold change vs veh, RFX7 / RFU, GTPBP10 / Fold change vs veh, GTPBP10 / RFU, CNEP1R1 / Fold change vs veh, CNEP1R1 / RFU, BIVM-ERCC5 /// ERCC5 / Fold change vs veh, BIVM-ERCC5 /// ERCC5 / RFU, ILF3 / Fold change vs veh, ILF3 / RFU 11762660_at / Fold change /veh 11762660_at / RFU VCAN (11757783_s_at) / Fold change /veh VCAN (11757783_s_at) / RFU DDX43 (11728927_at) / Fold change /veh DDX43 (11728927_at) / RFU KRT8 (11758188_x_at) / Fold change /veh KRT8 (11758188_x_at) / RFU NKD1 (11759106_at) / Fold change /veh NKD1 (11759106_at) / RFU SRD5A1 (11742802_a_at) / Fold change /veh SRD5A1 (11742802_a_at) / RFU TPSAB1 /// TPSB2 (11721975_s_at) / Fold change /veh TPSAB1 /// TPSB2 (11721975_s_at) / RFU GSTM3 (11746129_a_at) / Fold change /veh GSTM3 (11746129_a_at) / RFU IL23R (11737362_x_at) / Fold change /veh IL23R (11737362_x_at) / RFU TMEM51 (11727254_a_at) / Fold change /veh TMEM51 (11727254_a_at) / RFU PIWIL2 (11732686_x_at) / Fold change /veh PIWIL2 (11732686_x_at) / RFU ORM1 (11744905_x_at) / Fold change /veh ORM1 (11744905_x_at) / RFU CCDC152 (11743942_at) / Fold change /veh CCDC152 (11743942_at) / RFU ECM1 (11717891_a_at) / Fold change /veh ECM1 (11717891_a_at) / RFU IL23R (11748794_a_at) / Fold change /veh IL23R (11748794_a_at) / RFU TNFAIP8L3 (11732012_x_at) / Fold change /veh TNFAIP8L3 (11732012_x_at) / RFU MBOAT4 (11741988_at) / Fold change /veh MBOAT4 (11741988_at) / RFU 11764193_at / Fold change /veh 11764193_at / RFU TMEM53 (11763286_at) / Fold change /veh TMEM53 (11763286_at) / RFU MAGEB2 (11727129_at) / Fold change /veh MAGEB2 (11727129_at) / RFU TMEM200A (11744735_a_at) / Fold change /veh TMEM200A (11744735_a_at) / RFU CCDC152 (11751479_a_at) / Fold change /veh CCDC152 (11751479_a_at) / RFU FAM211A (11726209_a_at) / Fold change /veh FAM211A (11726209_a_at) / RFU RGS16 (11746705_a_at) / Fold change /veh RGS16 (11746705_a_at) / RFU VCAN (11755009_s_at) / Fold change /veh VCAN (11755009_s_at) / RFU RHOB (11743442_s_at) / Fold change /veh RHOB (11743442_s_at) / RFU RGS16 (11720943_a_at) / Fold change /veh RGS16 (11720943_a_at) / RFU RGS16 (11720944_at) / Fold change /veh RGS16 (11720944_at) / RFU, VPS4B / Fold change vs veh, VPS4B / RFU, CREB1 / Fold change vs veh, CREB1 / RFU, DNAJC13 / Fold change vs veh, DNAJC13 / RFU, GNAQ / Fold change vs veh, GNAQ / RFU, CDK5R1 / Fold change vs veh, CDK5R1 / RFU, ZRANB3 / Fold change vs veh, ZRANB3 / RFU, CUL4A / Fold change vs veh, CUL4A / RFU, CCNY / Fold change vs veh, CCNY / RFU, UFL1 / Fold change vs veh, UFL1 / RFU, COG3 / Fold change vs veh, COG3 / RFU, DIAPH2 / Fold change vs veh, DIAPH2 / RFU, SKA2 / Fold change vs veh, SKA2 / RFU, AFF3 / Fold change vs veh, AFF3 / RFU, LMF1 / Fold change vs veh, LMF1 / RFU, IPO11 / Fold change vs veh, IPO11 / RFU, DFFB / Fold change vs veh, DFFB / RFU, FOXP1 / Fold change vs veh, FOXP1 / RFU, CARD8 / Fold change vs veh, CARD8 / RFU, STRN3 / Fold change vs veh, STRN3 / RFU, ADK / Fold change vs veh, ADK / RFU, RASSF2 / Fold change vs veh, RASSF2 / RFU, WIPF1 / Fold change vs veh, WIPF1 / RFU, LARP1B / Fold change vs veh, LARP1B / RFU, RASA1 / Fold change vs veh, RASA1 / RFU, RB1 / Fold change vs veh, RB1 / RFU, PPFIA1 / Fold change vs veh, PPFIA1 / RFU, MAT2A / Fold change vs veh, MAT2A / RFU, CCT5 / Fold change vs veh, CCT5 / RFU, WDR92 / Fold change vs veh, WDR92 / RFU, CUX1 / Fold change vs veh, CUX1 / RFU, TTC7A / Fold change vs veh, TTC7A / RFU, TMEM135 / Fold change vs veh, TMEM135 / RFU, DEPTOR / Fold change vs veh, DEPTOR / RFU, CPM / Fold change vs veh, CPM / RFU, DNAJB6 / Fold change vs veh, DNAJB6 / RFU, CACNA2D3 / Fold change vs veh, CACNA2D3 / RFU, DTX4 / Fold change vs veh, DTX4 / RFU, TFCP2 / Fold change vs veh, TFCP2 / RFU, GMCL1 /// GMCL1P1 / Fold change vs veh, GMCL1 /// GMCL1P1 / RFU, AEBP2 / Fold change vs veh, AEBP2 / RFU, SNHG1 /// SNORD22 /// SNORD25 /// SNORD26 /// SNORD27 /// SNORD28 /// SNORD29 /// SNORD31 / Fold change vs veh, SNHG1 /// SNORD22 /// SNORD25 /// SNORD26 /// SNORD27 /// SNORD28 /// SNORD29 /// SNORD31 / Fold change (Aza/veh), C12orf56 (ProbeSet 11735607_a_at) / Fold change (ACY-1035/veh), C12orf56 (ProbeSet 11735607_a_at) / Fold change (Aza/veh), FGFR1OP (ProbeSet 11751329_s_at) / Fold change (ACY-1035/veh), FGFR1OP (ProbeSet 11751329_s_at) / Fold change (Aza/veh), VPS36 (ProbeSet 11739960_a_at) / Fold change (ACY-1035/veh), VPS36 (ProbeSet 11739960_a_at) / RFU SYPL1 (11715823_x_at) / Fold change /veh SYPL1 (11715823_x_at) / RFU IGFBP7 (11715501_s_at) / Fold change /veh IGFBP7 (11715501_s_at) / RFU REEP3 (11722064_at) / Fold change /veh REEP3 (11722064_at) / RFU IGLL1 (11728026_x_at) / Fold change /veh IGLL1 (11728026_x_at): dose or concentration left out as unconfirmed", "settings": "MV-4-11 cells, 48 hours"}
{"smiles": "Nc1ccc(-c2cccs2)cc1NC(=O)c1ccc2c(c1)cc(C1CC1)n2CCN1CCOCC1", "note": "[ACY-1035]", "values": [{"measurement": "Fold change /veh ACY1 (11761880_at)", "value": 1.19}]}
